Assays:
[1] = molecular target: T1, Muscarinic acetylcholine receptor M1 (Homo sapiens, UniProt P11229); test: Binding affinity against human Muscarinic acetylcholine receptor M1 in transfected CHO cells; assay type: cell-based
T1 sequence (P11229 whole entry): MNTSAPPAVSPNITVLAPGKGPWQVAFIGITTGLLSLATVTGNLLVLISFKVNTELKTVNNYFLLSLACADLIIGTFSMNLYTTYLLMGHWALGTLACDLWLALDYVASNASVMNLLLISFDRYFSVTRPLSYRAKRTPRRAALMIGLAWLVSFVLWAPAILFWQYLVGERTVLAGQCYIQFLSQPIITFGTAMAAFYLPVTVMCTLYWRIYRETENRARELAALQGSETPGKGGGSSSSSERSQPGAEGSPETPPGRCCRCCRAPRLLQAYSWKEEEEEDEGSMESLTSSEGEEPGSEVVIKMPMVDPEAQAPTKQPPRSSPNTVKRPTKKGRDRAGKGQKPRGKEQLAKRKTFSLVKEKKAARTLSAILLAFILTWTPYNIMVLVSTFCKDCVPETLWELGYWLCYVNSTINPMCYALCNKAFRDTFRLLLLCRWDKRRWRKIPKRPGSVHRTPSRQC

[2] = molecular target: T2, Muscarinic acetylcholine receptor M2 (Homo sapiens, UniProt P08172); test: Binding affinity against human muscarinic acetylcholine receptor M2 in transfected CHO cells; assay type: cell-based
T2 sequence (P08172 whole entry): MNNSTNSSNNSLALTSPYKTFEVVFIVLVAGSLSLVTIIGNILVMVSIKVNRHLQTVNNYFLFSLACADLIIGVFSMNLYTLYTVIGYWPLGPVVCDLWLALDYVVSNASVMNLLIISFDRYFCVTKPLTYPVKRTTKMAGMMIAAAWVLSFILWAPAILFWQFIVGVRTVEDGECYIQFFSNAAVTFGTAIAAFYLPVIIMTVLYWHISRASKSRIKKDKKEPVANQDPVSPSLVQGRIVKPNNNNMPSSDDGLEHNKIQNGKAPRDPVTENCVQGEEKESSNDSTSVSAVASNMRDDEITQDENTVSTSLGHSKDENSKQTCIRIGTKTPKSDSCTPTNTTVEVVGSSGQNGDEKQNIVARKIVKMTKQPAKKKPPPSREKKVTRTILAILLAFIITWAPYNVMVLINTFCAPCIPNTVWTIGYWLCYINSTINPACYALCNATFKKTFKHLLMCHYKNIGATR

[3] = molecular target: Muscarinic acetylcholine receptor M3 (Homo sapiens, UniProt P20309); test: Binding affinity against human muscarinic acetylcholine receptor M3 in transfected CHO cells; assay type: cell-based
[4] = In vitro metabolic stability determined after 30 min of incubation in human hepatic microsomes; assay type: ADME; settings: liver microsomes, read-out: Metabolic stability
[5] = In vitro metabolic stability determined after 30 min of incubation in rat hepatic microsomes; assay type: ADME; settings: liver microsomes, read-out: Metabolic stability
[6] = In vitro metabolic stability determined after 30 min of incubation in dog hepatic microsomes; assay type: ADME, Canis lupus familiaris; settings: liver microsomes, read-out: Metabolic stability
[7] = Half-life of the compound after 0.3 mg/kg po administration in dog; assay type: ADME, organism-based, Canis lupus familiaris; design: dose 0.3 mg/kg, route oral; settings: in vivo
[8] = Area under curve was determined after 0.3 mg/kg po administration in dog; assay type: ADME, organism-based, Canis lupus familiaris; design: dose 0.3 mg/kg, route oral; settings: in vivo
[9] = Oral bioavailability after 0.3 mg/kg po administration in dog; assay type: ADME, organism-based, Canis lupus familiaris; settings: in vivo
[10] = Vdss was determined after iv 0.1 mg/kg administration in dog; assay type: ADME, organism-based, Canis lupus familiaris; design: dose 0.1 mg/kg, route intravenous; settings: in vivo, read-out: Vdss
[11] = Area under curve was determined after 0.1 mg/kg iv administration in dog; assay type: ADME, organism-based, Canis lupus familiaris; design: dose 0.1 mg/kg, route intravenous; settings: in vivo
[12] = Cmax after 0.3 mg/kg po administration in dog; assay type: ADME, organism-based, Canis lupus familiaris; design: dose 0.3 mg/kg, route oral; settings: in vivo
[13] = Total clearance was determined after 0.1 mg/kg iv administration in dog; assay type: ADME, organism-based, Canis lupus familiaris; design: dose 0.1 mg/kg, route intravenous; settings: in vivo, read-out: CLtotal

Muscarinic acetylcholine receptor M3, sequence (P20309 whole entry): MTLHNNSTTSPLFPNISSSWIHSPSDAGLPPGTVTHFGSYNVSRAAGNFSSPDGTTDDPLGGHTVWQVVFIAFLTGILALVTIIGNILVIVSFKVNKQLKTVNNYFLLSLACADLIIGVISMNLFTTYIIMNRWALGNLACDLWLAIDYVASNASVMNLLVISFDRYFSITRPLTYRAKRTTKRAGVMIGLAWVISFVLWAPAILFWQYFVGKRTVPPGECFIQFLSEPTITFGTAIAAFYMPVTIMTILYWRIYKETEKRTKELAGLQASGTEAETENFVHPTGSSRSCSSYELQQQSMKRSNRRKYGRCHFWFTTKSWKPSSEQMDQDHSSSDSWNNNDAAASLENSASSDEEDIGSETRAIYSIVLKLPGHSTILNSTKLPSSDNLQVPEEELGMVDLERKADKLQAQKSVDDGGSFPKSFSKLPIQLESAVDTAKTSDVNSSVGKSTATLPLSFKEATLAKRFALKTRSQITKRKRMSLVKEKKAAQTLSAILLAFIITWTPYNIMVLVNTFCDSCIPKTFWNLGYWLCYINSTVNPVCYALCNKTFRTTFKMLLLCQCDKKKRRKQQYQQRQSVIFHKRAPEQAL

Q: Which Ki [1] does the source give for O=C(Nc1ccc2c(c1)CNC2)[C@](O)(c1ccccc1)[C@@H]1CCC(F)(F)C1 here?
A: 630 nM

Q: What about the Ki [2] of the same molecule?
A: 15000 nM

Q: What about the Ki [3] of the same molecule?
A: 290 nM

Q: For O=C(N1CCNCC1)[C@](O)(c1ccccc1)[C@@H]1CCC(F)(F)C1, which Ki [1] is on record?
A: 30 nM

Q: And the Ki [2]?
A: 1200 nM

Q: And the Ki [3]?
A: 50 nM

Q: With O=C(NC1CCNCC1)[C@](O)(c1ccccc1)[C@@H]1CCC(F)(F)C1 as the molecule, how does the Ki [1] read?
A: 310 nM

Q: And the Ki [2]?
A: 15000 nM

Q: And the Ki [3]?
A: 320 nM

Q: For NCC=C1CCN(C(=O)[C@](O)(c2ccccc2)[C@@H]2CCC(F)(F)C2)CC1, which Ki [1] is on record?
A: 1.3 nM

Q: And the Ki [2]?
A: 55 nM

Q: And the Ki [3]?
A: 1.2 nM

Q: With NC1CCN(C(=O)[C@](O)(c2ccccc2)[C@@H]2CCC(F)(F)C2)CC1 as the molecule, how does the Ki [1] read?
A: 3 nM

Q: What about the Ki [2] of the same molecule?
A: 240 nM

Q: What about the remaining at 0.5 h [4] of the same molecule?
A: 86%

Q: And the remaining at 0.5 h [5]?
A: 100%

Q: And the Ki [3]?
A: 5.1 nM

Q: What about the remaining at 0.5 h [6] of the same molecule?
A: 88%

Q: Which Ki [1] does the source give for O=C(NCCC1CCNCC1)[C@](O)(c1ccccc1)[C@@H]1CCC(F)(F)C1 here?
A: 140 nM

Q: What about the Ki [2] of the same molecule?
A: 3900 nM

Q: What about the Ki [3] of the same molecule?
A: 89 nM

Q: With NC1CCN(C(=O)[C@](O)(c2ccccc2)C2CCCC2)CC1 as the molecule, how does the Ki [1] read?
A: 0.98 nM

Q: What about the Ki [2] of the same molecule?
A: 11 nM

Q: And the remaining at 0.5 h [4]?
A: 92%

Q: And the remaining at 0.5 h [5]?
A: 40%

Q: What about the Ki [3] of the same molecule?
A: 1.4 nM

Q: And the remaining at 0.5 h [6]?
A: 89%

Q: For NCC1CCN(C(=O)[C@](O)(c2ccccc2)C2CCCC2)CC1, which Ki [1] is on record?
A: 1.8 nM

Q: And the Ki [2]?
A: 28 nM

Q: And the remaining at 0.5 h [4]?
A: 91%

Q: And the remaining at 0.5 h [5]?
A: 72%

Q: What about the Ki [3] of the same molecule?
A: 1.7 nM

Q: And the remaining at 0.5 h [6]?
A: 100%

Q: With CC(C)(N)CC1CCN(C(=O)[C@](O)(c2ccccc2)[C@@H]2CCC(F)(F)C2)CC1 as the molecule, how does the Ki [1] read?
A: 37 nM

Q: What about the Ki [2] of the same molecule?
A: 1000 nM

Q: And the Ki [3]?
A: 26 nM

Q: With Nc1cccc(CN2CCC(NC(=O)[C@](O)(c3ccccc3)[C@@H]3CCC(F)(F)C3)CC2)n1 as the molecule, how does the remaining at 0.5 h [4] read?
A: 80%

Q: What about the remaining at 0.5 h [5] of the same molecule?
A: 46%

Q: And the remaining at 0.5 h [6]?
A: 84%

Q: What does the source list for O=C(N1CCCNCC1)[C@](O)(c1ccccc1)[C@@H]1CCC(F)(F)C1?
A: Ki [1]: 14 nM; Ki [2]: 1100 nM; Ki [3]: 17 nM

Q: Which Ki [1] does the source give for CCC1(CCN)CCN(C(=O)[C@](O)(c2ccccc2)[C@@H]2CCC(F)(F)C2)CC1 here?
A: 1 nM

Q: What about the Ki [2] of the same molecule?
A: 300 nM

Q: And the Ki [3]?
A: 7 nM

Q: For NCCCCC1CCN(C(=O)[C@](O)(c2ccccc2)[C@@H]2CCC(F)(F)C2)CC1, which Ki [1] is on record?
A: 140 nM

Q: What about the Ki [2] of the same molecule?
A: 4200 nM

Q: What about the Ki [3] of the same molecule?
A: 76 nM

Q: For NCC1CCN(C(=O)[C@](O)(c2ccccc2)[C@@H]2CCC(F)(F)C2)C1 (stereo not given in full), which Ki [1] is on record?
A: 2.1 nM

Q: What about the Ki [2] of the same molecule?
A: 130 nM

Q: What about the Ki [3] of the same molecule?
A: 2.9 nM

Q: For O=C(NCC1CCNCC1)[C@](O)(c1ccccc1)[C@@H]1CCC(F)(F)C1, which Ki [1] is on record?
A: 23 nM

Q: And the Ki [2]?
A: 2200 nM

Q: And the Ki [3]?
A: 17 nM

Q: Which Ki [1] does the source give for CC1(CCN)CCN(C(=O)[C@](O)(c2ccccc2)[C@@H]2CCC(F)(F)C2)CC1 here?
A: 1.5 nM

Q: What about the Ki [2] of the same molecule?
A: 210 nM

Q: And the Ki [3]?
A: 3.3 nM

Q: With NCc1cccc(NC(=O)[C@](O)(c2ccccc2)[C@@H]2CCC(F)(F)C2)c1 as the molecule, how does the Ki [1] read?
A: 210 nM

Q: What about the Ki [2] of the same molecule?
A: 2900 nM

Q: What about the Ki [3] of the same molecule?
A: 93 nM

Q: With NCC(=O)N1CCN(C(=O)[C@](O)(c2ccccc2)[C@@H]2CCC(F)(F)C2)CC1 as the molecule, how does the Ki [1] read?
A: 21 nM

Q: What about the Ki [2] of the same molecule?
A: 300 nM

Q: What about the Ki [3] of the same molecule?
A: 16 nM

Q: What does the source list for NCCN1CCN(C(=O)[C@](O)(c2ccccc2)[C@@H]2CCC(F)(F)C2)CC1?
A: Ki [1]: 11 nM; Ki [2]: 820 nM; Ki [3]: 9.6 nM

Q: For CNCCC1CCN(C(=O)[C@](O)(c2ccccc2)[C@@H]2CCC(F)(F)C2)CC1, which Ki [1] is on record?
A: 140 nM

Q: What about the Ki [2] of the same molecule?
A: 5400 nM

Q: And the Ki [3]?
A: 120 nM

Q: Which Ki [1] does the source give for NCc1ccc(NC(=O)[C@](O)(c2ccccc2)[C@@H]2CCC(F)(F)C2)cc1 here?
A: 740 nM

Q: What about the Ki [2] of the same molecule?
A: 5300 nM

Q: What about the Ki [3] of the same molecule?
A: 650 nM

Q: Which Ki [1] does the source give for CC1(N)CCN(C(=O)[C@](O)(c2ccccc2)[C@@H]2CCC(F)(F)C2)CC1 here?
A: 4.7 nM

Q: What about the Ki [2] of the same molecule?
A: 640 nM

Q: And the Ki [3]?
A: 8.3 nM

Q: For NCC1CCC(NC(=O)[C@](O)(c2ccccc2)[C@@H]2CCC(F)(F)C2)CC1 (stereo not given in full), which Ki [1] is on record?
A: 55 nM

Q: And the Ki [2]?
A: 6800 nM

Q: What about the Ki [3] of the same molecule?
A: 100 nM

Q: With NCCC1CCN(C(=O)[C@](O)(c2ccccc2)C2CCCC2)CC1 as the molecule, how does the Ki [1] read?
A: 2.1 nM

Q: And the Ki [2]?
A: 41 nM

Q: What about the remaining at 0.5 h [4] of the same molecule?
A: 86%

Q: What about the remaining at 0.5 h [5] of the same molecule?
A: 77%

Q: And the Ki [3]?
A: 1.1 nM

Q: What about the remaining at 0.5 h [6] of the same molecule?
A: 84%

Q: With NCCCC1CCN(C(=O)[C@](O)(c2ccccc2)[C@@H]2CCC(F)(F)C2)CC1 as the molecule, how does the Ki [1] read?
A: 92 nM

Q: And the Ki [2]?
A: 2800 nM

Q: What about the Ki [3] of the same molecule?
A: 47 nM

Q: Which results are given for CN(C)CCC1CCN(C(=O)[C@](O)(c2ccccc2)[C@@H]2CCC(F)(F)C2)CC1?
A: Ki [1]: 760 nM; Ki [2]: 15000 nM; Ki [3]: 930 nM

Q: With NCCC1CCN(C(=O)[C@](O)(c2ccccc2)[C@@H]2CCC(F)(F)C2)CC1 as the molecule, how does the Ki [1] read?
A: 6.6 nM

Q: And the half-life [7]?
A: 6.9 h

Q: And the AUC [8]?
A: 440 ng·h/mL

Q: And the bioavailability [9]?
A: 98%

Q: What about the Vd [10] of the same molecule?
A: 9.4 L/kg

Q: And the AUC [11]?
A: 150 ng·h/mL

Q: And the remaining at 0.5 h [4]?
A: 82%

Q: And the Cmax [12]?
A: 43 ng/mL

Q: And the remaining at 0.5 h [5]?
A: 100%

Q: And the clearance [13]?
A: 13 mL/min/kg

Q: And the remaining at 0.5 h [6]?
A: 100%

Q: For NCC1CCN(C(=O)[C@](O)(c2ccccc2)[C@@H]2CCC(F)(F)C2)CC1, which Ki [1] is on record?
A: 11 nM

Q: What about the Ki [2] of the same molecule?
A: 760 nM

Q: And the remaining at 0.5 h [4]?
A: 100%

Q: And the remaining at 0.5 h [5]?
A: 98%

Q: And the Ki [3]?
A: 11 nM

Q: What about the remaining at 0.5 h [6] of the same molecule?
A: 100%

Q: For O=C(N1CCC(CCN2CCCCC2)CC1)[C@](O)(c1ccccc1)[C@@H]1CCC(F)(F)C1, which Ki [1] is on record?
A: 1900 nM

Q: And the Ki [2]?
A: 36000 nM

Q: What about the Ki [3] of the same molecule?
A: 2400 nM

Reference: ChEMBL document CHEMBL1136082, “Muscarinic M(3) receptor antagonists with (2R)-2-[(1R)-3,3-difluorocyclopentyl]-2-hydroxyphenylacetamide Structures. Part 2” (Bioorg Med Chem Lett, 2003)
